Reference: US6720342B2, “Heterocyclic compounds and their preparation and use” (Novo Nordisk A/S, priority 1996, dated 2004)
Structures can show the parent of a compound that is named as a salt.

Tests used:
[1] = molecular target: T1, muscarinic receptors (M1-site, pirenzepine sensitive site) (Rattus norvegicus, UniProt P08482); assay: Inhibition of 3H-PRZ (pirenzepine, [N-methyl-3H]) binding to rat cerebral cortex membranes; conditions: 1.0 nM 3H-Pirenzepine, 60 min at 20° C.
T1 construct: Fresh cortex (0.1-1 g) from male Wistar rats (150-200 g) is homogenized; from tissue; host or cells: rat (male Wistar) cerebral cortex membranes
T1 sequence (P08482 1-460): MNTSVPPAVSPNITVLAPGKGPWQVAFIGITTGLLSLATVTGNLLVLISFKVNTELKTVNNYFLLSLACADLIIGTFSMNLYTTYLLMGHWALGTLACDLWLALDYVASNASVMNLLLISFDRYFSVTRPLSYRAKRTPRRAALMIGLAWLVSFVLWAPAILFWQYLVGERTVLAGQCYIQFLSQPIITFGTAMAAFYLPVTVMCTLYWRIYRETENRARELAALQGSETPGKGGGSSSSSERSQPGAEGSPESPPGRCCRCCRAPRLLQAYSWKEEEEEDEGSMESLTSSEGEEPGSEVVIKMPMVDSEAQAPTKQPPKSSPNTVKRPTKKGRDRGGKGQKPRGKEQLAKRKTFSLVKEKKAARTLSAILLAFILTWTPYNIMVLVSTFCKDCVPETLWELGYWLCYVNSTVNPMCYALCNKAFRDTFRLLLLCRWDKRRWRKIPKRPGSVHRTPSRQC
Procedure: Furthermore the pharmacological properties of the compounds of the invention can also be illustrated by determining their capability to inhibit ^3H-PRZ (pirenzepine, [N-methyl-^3H]) binding to rat cerebral cortex membranes. Pirenzepine binds selectively to subtype of muscarinic receptors. Historically the type is named the M1-site, whereas pirenzepine sensitive site would be more appropriate. Although selective for M1-sites pirenzepine also interact with M2-sites.
(§1) All preparations are performed at 0-4° C. unless otherwise indicated. Fresh cortex (0.1-1 g) from male Wistar rats (150-200 g) is homogenized for 5-10 s. in 10 ml 20 mM Hepes pH: 7.4, with an Ultra-Turrax homogenizer. The homogenizer is rinsed with 2×10 ml of buffer and the combined suspension centrifuged for 15 min at 40,000×g. The pellet is washed three times with buffer. In each step the pellet is homogenized as before in 3×10 ml of buffer and centrifuged for 10 min at 40,000×g.
The final pellet is homogenized in 20 mM Hepes pH: 7.4 (100 ml per g of original tissue) and used for binding assay. Aliquots of 0.5 ml is added 20 μl of test solution and 25 μl of ^3H-Pirenzepine (1.0 nM, final conc.), mixed and incubated for 60 min at 20° C. Non-specific binding is determined in triplicate using atropine (1 μg/ml, final conc.) as the test substance. After incubation samples are added 5 ml of ice-cold buffer and poured directly onto Whatman GF/C glass fiber filters under suction and immediately washed 2 times with 5 ml of ice-cold buffer. The amount of radioactivity on the filters are determined by conventional liquid scintillation counting. Specific binding is total binding minus non-specific binding.
Test substances are dissolved in 10 ml water, at a concentration of 0.22 mg/ml. 25-75% inhibition of specific binding must be obtained before calculation of IC50.
The test value will be given as IC50 (the concentration (nM) of the test substance which inhibits the specific binding of ^3H-PRZ by 50%).
(§2) IC50=(applied test substance concentration)×(Cx/Co−Cx)nM
(§3) where Co is specific binding in control assays and Cx is the specific binding in the test assay. (The calculations assume normal mass-action kinetics).

[2] = molecular target: muscarinic acetylcholine receptors; assay: Inhibition of specific binding of 3H-Oxotremorine-M (3H-Oxo) to rat cortex membranes; conditions: rat cortex homogenate, 1.0 nM 3H-Oxotremorine, 30 min at 25° C.
Text: The pharmacological properties of the compounds of the invention can be illustrated by determining their capability to inhibit the specific binding of ^3H-Oxotremorine-M (^3H-Oxo). Birdsdall N. J. M., Hulme E. C., and Burgen A. S. V. (1980). “The Character of Muscarinic Receptors in Different Regions of the Rat Brain”. Proc. Roy. Soc. London (Series B) 207, 1.
^3H-Oxo labels muscarinic receptor in the CNS (with a preference for agonist domains of the receptors). Three different sites are labelled by ^3H-Oxo. […] Using the present experimental conditions only the high and medium affinity sites are determined.
The inhibitory effects of compounds on ^3H-Oxo binding reflects the affinity for muscarinic acetylcholine receptors.
as §1, with “(150-250” for “(150-200”, “s” for “s.”, “10” for “2×10”, “min.” for “min”, “2×10” for “3×10”
The final pellet is homogenized in 20 mM Hepes pH: 7.4 (100 ml per g of original tissue) and used for binding assay. Aliquots of 0.5 ml is added 25 μl of test solution and 25 μl of ^3H-Oxotremorine (1.0 nM, final concentration) mixed and incubated for 30 min. at 25° C. Non-specific binding is determined in triplicate using arecoline (1 μg/ml, final concentration) as the test substance. After incubation samples are added 5 ml of ice-cold buffer and poured directly onto Whatman GF/C glass fiber filters under suction and immediately washed 2 times with 5 ml of ice-cold buffer. The amount of radioactivity on the filters are determined by conventional liquid scintillation counting. Specific binding is total binding minus non specific binding.
Test substances are dissolved in 10 ml water (if necessary heated on a steambath for less than 5 min.) at a concentration of 2.2 mg/ml. 25-75% inhibition of specific binding must be obtained before calculation of IC50.
The test value will be given as IC50 (the concentration (nM) of the test substance which inhibits the specific binding of ^3H-Oxo by 50%).
as §2, §3

With `CCCCSc1nsnc1OC1CN2CCC1C2` (stereo not drawn) [Compound 1, Endo 3-(3-butylthio-1,2,5-thiadiazol-4-yloxy)-1-azabicyclo[2.2.1]heptane, oxalate] the IC50 [1] was 0.14 nM and the IC50 [2] was 1.6 nM.

Work on `CCCSc1nsnc1OC1CN2CCC1C2` (stereo not drawn) [Compound 2, Endo 3-(3-propylthio-1,2,5-thiadiazol-4-yloxy)-1-azabicyclo[2.2.1]heptane, oxalate] yielded an IC50 [1] of 4.2 nM and an IC50 [2] of 1.4 nM.

Work on `Fc1ccc(C#CCOc2nsnc2OC2CN3CCC2C3)cc1` (stereo not drawn) [Compound 4, Endo 3-(3-[3-(4-fluorophenyl)-2-propynyl-1-oxy]-1,2,5-thiadiazol-4-yloxy)-1-azabicyclo[2.2.1]heptane, oxalate] yielded an IC50 [1] of 8.3 nM and an IC50 [2] of 7.9 nM.

Work on `C(#Cc1ccccc1)COc1nsnc1OC1CN2CCC1C2` (stereo not drawn) [Compound 5, Endo 3-(3-[3-phenyl-2-propynyl-1-oxy]-1,2,5-thiadiazol-4-yloxy)-1-azabicyclo[2.2.1]heptane, oxalate] yielded an IC50 [1] of 14 nM and an IC50 [2] of 10 nM.

Work on `COc1cccc(C#CCOc2nsnc2OC2CN3CCC2C3)c1` (stereo not drawn) [Compound 6, Endo 3-(3-[3-(3-methoxyphenyl)-2-propynyl-1-oxy]-1,2,5-thiadiazol-4-yloxy)-1-azabicyclo[2.2.1]heptane, oxalate] yielded an IC50 [1] of 17 nM.

Compound `CC(C)=CCOc1nsnc1OC1CN2CCC1C2` (stereo not drawn) [Compound 7, Endo 3-(3-[3-methyl-2-butenyl-1-oxy]-1,2,5-thiadiazol-4-yloxy)-1-azabicyclo[2.2.1]heptane, oxalate] has an IC50 [1] of 24 nM and an IC50 [2] of 10 nM.

Work on `C(CC1CC1)Oc1nsnc1OC1CN2CCC1C2` (stereo not drawn) [Compound 8, Endo 3-(3-[2-cyclopropylethyl-1-oxy]-1,2,5-thiadiazol-4-yloxy)-1-azabicyclo[2.2.1]heptane, oxalate] yielded an IC50 [1] of 9.8 nM and an IC50 [2] of 4.9 nM.

`Fc1ccc(COc2nsnc2OC2CN3CCC2C3)cc1` (stereo not drawn) [Compound 9, Endo 3-(3-[4-fluorobenzyloxy]-1,2,5-thiadiazol-4-yloxy)-1-azabicyclo-[2.2.1]heptane, oxalate] was tested, and the IC50 [1] was 30 nM and the IC50 [2] was 25 nM.

`CC=CCOc1nsnc1OC1CN2CCC1C2` (stereo not drawn) [Compound 10, Endo 3-(3-[2-butenyl-1-oxy]-1,2,5-thiadiazol-4-yloxy)-1-azabicyclo[2.2.1]heptane, oxalate] showed an IC50 [1] of 20 nM and an IC50 [2] of 5.3 nM.

`CC#CCOc1nsnc1OC1CN2CCC1C2` (stereo not drawn) [Compound 11, Endo 3-(3-[2-butynyl-1-oxy]-1,2,5-thiadiazol-4-yloxy)-1-azabicyclo[2.2.1]heptane, oxalate] was tested, and the IC50 [1] was 23 nM and the IC50 [2] was 2.1 nM.

Compound `CSCCOc1nsnc1OC1CN2CCC1C2` (stereo not drawn) [Compound 12, Endo 3-(3-methylthioethoxy-1,2,5-thiadiazol-4-yloxy)-1-azabicyclo-[2.2.1]heptane, oxalate] has an IC50 [1] of 29 nM and an IC50 [2] of 3.7 nM.

`COCCOc1nsnc1OC1CN2CCC1C2` (stereo not drawn) [Compound 13, Endo 3-(3-methoxyethoxy-1,2,5-thiadiazol-4-yloxy)-1-azabicyclo[2.2.1]heptane, oxalate] gave an IC50 [1] of 44 nM and an IC50 [2] of 4.3 nM.

In the case of `FC(F)(F)Oc1ccc(COc2nsnc2OC2CN3CCC2C3)cc1` (stereo not drawn) [Compound 14, Endo 3-(3-[4-trifluoromethoxybenzyloxy]-1,2,5-thiadiazol-4-yloxy)-1-azabicyclo[2.2.1]heptane, oxalate], the IC50 [1] is reported as 32 nM and the IC50 [2] is reported as 49 nM.

`FC(F)(F)CCCOc1nsnc1OC1CN2CCC1C2` (stereo not drawn) [Compound 15, Endo 3-(3-[4,4,4-trifluorobutyl-1-oxy]-1,2,5-thiadiazol-4-yloxy)-1-azabicyclo[2.2.1]heptane, oxalate] was tested, and the IC50 [1] was 14 nM and the IC50 [2] was 18 nM.

Compound `Fc1cc(C(F)(F)F)ccc1COc1nsnc1OC1CN2CCC1C2` (stereo not drawn) [Compound 16, Endo 3-(3-[2-fluoro-4-(trifluoromethyl)-benzyloxy]-1,2,5-thiadiazol-4-yloxy)-1-azabicyclo[2.2.1]heptane, oxalate] has an IC50 [1] of 129 nM and an IC50 [2] of 148 nM.

For `COc1cccc(C#CC(C)Oc2nsnc2OC2CN3CCC2C3)c1` (stereo not drawn) [Compound 17, Endo 3-(3-[4-(3-methoxyphenyl)-3-butyn-2-yloxy]-1,2,5-thiadiazol-4-yloxy)-1-azabicyclo[2.2.1]heptane, oxalate], the IC50 [1] was 48 nM and the IC50 [2] was 72 nM.

With `Clc1ccc(C#CCOc2nsnc2OC2CN3CCC2C3)cc1` (stereo not drawn) [Compound 18, Endo 3-(3-[3-(4-chlorophenyl)-2-propynyl-1-oxy]-1,2,5-thiadiazol-4-yloxy)-1-azabicyclo[2.2.1]heptane, oxalate] the IC50 [1] was 12 nM and the IC50 [2] was 79 nM.

With `CCC(C#Cc1cccc(OC)c1)Oc1nsnc1OC1CN2CCC1C2` (stereo not drawn) [Compound 19, Endo 3-(3-[1-(3-methoxyphenyl)-1-pentyn-3-yloxy]-1,2,5-thiadiazol-4-yloxy)-1-azabicyclo[2.2.1]heptane, oxalate] the IC50 [1] was 53 nM and the IC50 [2] was 126 nM.

In the case of `FC(F)(F)c1cccc(C#CCOc2nsnc2OC2CN3CCC2C3)c1` (stereo not drawn) [Compound 20, Endo 3-(3-(3-(3-trifluoromethylphenyl)-2-propynyl-1-oxy)-1,2,5-thiadiazol-4-yloxy)-1-azabicyclo[2.2.1]heptane, oxalate], the IC50 [1] is reported as 11 nM.

Work on `Fc1cccc(C#CCOc2nsnc2OC2CN3CCC2C3)c1` (stereo not drawn) [Compound 28, Endo 3-(3-(3-(3-fluorophenyl)-2-propyn-1-yloxy)-1,2,5-thiadiazol-4-yloxy-1-azabicyclo[2.2.1]heptane, oxalate] yielded an IC50 [2] of 5.5 nM.

`FC(F)(F)CCCSc1nsnc1OC1CN2CCC1C2` (stereo not drawn) [Compound 30, Endo 3-(3-(4,4,4-trifluorobutylthio)-1,2,5-thiadiazol-4-yloxy)-1-azabicyclo-[2.2.1]heptane, oxalate] gave an IC50 [1] of 3.4 nM.

`N#Cc1ccc(CSc2nsnc2OC2CN3CCC2C3)cc1` (stereo not drawn) [Compound 31, Endo 3-(3-[4-cyanobenzylthio]-1,2,5-thiadiazol-4-yloxy)-1-azabicyclo-[2.2.1]heptane, oxalate] showed an IC50 [1] of 23 nM.

Work on `FCCSc1nsnc1OC1CN2CCC1C2` (stereo not drawn) [Compound 34, Endo 3-(3-[2-fluoroethyl-1-thio]-1,2,5-thiadiazol-4-yloxy)-1-azabicyclo-[2.2.1]heptane, oxalate] yielded an IC50 [1] of 31 nM.

Compound `C1CC(COc2nsnc2OC2CN3CCC2C3)C1` (stereo not drawn) [Compound 41, Endo 3-(3-cyclobutylmethyloxy-1,2,5-thiadiazol-4-yloxy)-1-azabicyclo-[2.2.1]heptane, oxalate] has an IC50 [1] of 9.2 nM.
